Assay [1] concerns the target T1, PLL3 (Photorhabdus laumondii subsp. laumondii, UniProt Q7N8I7). The assay is described as follows: Glycan array screening with DyLight 488-labeled PLL3. The format is binding. The source says:
Purified PLL3 protein was labeled with DyLight 488 NHS Ester (Thermo Scientific, Rockford, MI, USA) according to the manual instructions of the manufacturer. The unbound dye was removed from the solution using the Zeba Spin Desalting Column (Thermo scientific). The labeled lectin was used for glycan array screening using a glycan microarray chip (Semiotik, Moscow, Russia; chip format OSPS280715; slide number 10085636) containing over 600 mammalian and bacterial glycans (all in hexaplicates). The glycan microarray chip was incubated in 1.0 mL of PBS buffer supplemented with 0.1% (v/v) Tween 20 and placed in a humid chamber for 15 min (37 °C, 40 rpm). Then, the buffer was replaced by 0.5 mL PLL3 (200 μg mL^−1) diluted in PBS buffer with 0.1% Tween 20 and 1% (w/v) bovine serum albumin (Serva, Germany). After incubation (90 min, 37 °C, 40 rpm), the chip was washed by decreasing concentrations of PBS with 0.1% Tween 20, followed by multiple immersions in ultrapure water. Subsequently, the chip was dried by air blow. Fluorescence was read with a scanner InnoScan 1100 AL (Innopsys, Carbonne, France) with a 488 nm laser at 20 °C. The data were analyzed with the software Mapix 8.2.2 and an online glycan chip converter (Semiotik, https://rakitko.shinyapps.io/semiotik). The relative fluorescent response of PLL3 binding was calculated from hexaplicates of each glycan immobilized onto the chip. Only glycans with a response three or more times higher than trehalose and concurrently with a signal-to-noise ratio higher than two were considered as significant binders.

Assay [2] has as its target T1, PLL3. The assay is described as follows: Isothermal titration calorimetry (ITC). The format is binding. The following applies: KD. On the procedure:
ITC experiments were carried out using an AutoITC200 calorimeter (Malvern, UK) at 25 °C. The purified lectin was dialyzed against 20 mM Tris/HCl, 150 mM NaCl, pH 7.5 buffer before measurements. Individual ligands (L-fucose, αMeFuc, D-galactose, D-glucose, 3-O-methyl-D-glucose, and decavalent fucosylated glycoclusters 4a and 4b) were dissolved in the same buffer. PLL3 (100 μM) in the cell was titrated by the successive addition (2.0 μL) of the ligand in the syringe (20 mM for monosaccharides, 1 mM for multivalent fucosides). Experiments with monosaccharides were performed at stirring 750 rpm with a reference power of 10 μcal s^−1. Experiments with multivalent fucosides were performed at stirring 500 rpm with a reference power of 6 μcal s^−1. Titrations were carried out in three independent measurements for each ligand. Blank measurements were subtracted from collected data. For multivalent fucosides, two blank measurements were performed: titration of the buffer into the cell with PLL3 and titration of the buffer into the buffer. For monosaccharides, the additional blank measurement, the titration of a given ligand into the cell with buffer, was performed. The data were evaluated in software MicroCal PEAQ-ITC Analysis Software (Malvern, UK) by using the global fit method. Integrated heat effects were analyzed by nonlinear regression.

For assay [3], the target named is T1, PLL3. The assay is described as follows: Hemagglutination inhibition assay (PLL3 with erythrocytes of blood group O). The format is cell-based. The following applies: PLL3 50 μM, blood group O erythrocytes; saccharide 100 to 0.1 mM. On the procedure:
For the hemagglutination inhibition assay, the PLL3 was mixed with serially diluted saccharides (L-fucose, αMeFuc, D-galactose, D-glucose, and 3-O-methyl-D-glucose) dissolved in PBS buffer, and mixtures were incubated for 15 min at room temperature. Subsequently, erythrocytes of blood group O were added into the mixture with following incubation for 15 min. The final concentration was 50 μM for the PLL3 and 10% (v/v) for erythrocytes. Concentrations of L-fucose and αMeFuc ranged from 50 to 0.05 mM. Concentrations of D-galactose, D-glucose, and 3-O-methyl-D-glucose ranged from 100 to 0.1 mM. Each sample was observed under the optical microscope (Olympus IX81 with camera DP72; 200x magnification; SW CellSens Dimension, Olympus corporation, Tokyo, Japan).

Where [4] appears, read: glycan array signal of DyLight 488-labeled PLL3 per immobilized glycan or bacterial polysaccharide.
Where [5] appears, read: glycan array signal of DyLight 488-labeled PLL3 per printed glycan, Table S2, file PLU35_second_noheader.gpr.

Starred links: 1 amine or outer side, 2 acyl side, 3 side chain; linkers in the order of their positions; H or OH if unused. Residues, ends and D or L forms follow the SMILES beside them. Suc = O=C(CCC(=O)[*:2])[*:1]

T1 sequence (Q7N8I7 entry or part of it): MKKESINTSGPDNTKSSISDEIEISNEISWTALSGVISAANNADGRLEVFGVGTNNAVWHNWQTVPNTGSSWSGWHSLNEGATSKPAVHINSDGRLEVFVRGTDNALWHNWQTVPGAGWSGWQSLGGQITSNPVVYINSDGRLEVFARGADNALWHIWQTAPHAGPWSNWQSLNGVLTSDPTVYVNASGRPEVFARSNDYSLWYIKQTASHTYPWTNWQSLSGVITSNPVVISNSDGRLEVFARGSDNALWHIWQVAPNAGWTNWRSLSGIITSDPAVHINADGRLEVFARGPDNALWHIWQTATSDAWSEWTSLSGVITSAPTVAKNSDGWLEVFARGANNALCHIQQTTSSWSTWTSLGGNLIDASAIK

Take `NCCOCCOCCOCCOCCOCCOCC(=O)NCCOC1OC(COC2OC(COC3OC(CO)C(O)C3OC3OC(CO)C(O)C3O)C(OC3OC(CO)C(O)C3OC3OC(CO)C(O)C3O)C2O)C(O)C1O` (stereo not shown): the Median in assay [1] (setting [4]) was determined as 220. Turning to `CC(=O)N[C@@H]1C(O)C[C@](O[C@@H]2C(O)[C@H](O[C@@H]3C(CO)OC(NC(=O)CN)C(O)[C@H]3O)OC(CO)[C@@H]2O)(C(=O)O)OC1[C@H](O)[C@H](O)CO` (stereo partly shown) [3'SL-Gly], the Median in assay [1] (setting [4]) was 101. `CC(=O)N[C@H]1[C@H]([C@H](O)[C@H](O)CO)O[C@@](O[C@H]2[C@@H](O)[C@@H](CO)O[C@@H](O[C@H]3[C@H](O)[C@@H](NC(C)=O)C(O)O[C@@H]3CO)[C@@H]2O)(C(=O)O)C[C@@H]1O` (stereo partly shown) [3'SLN] came in with a Median in assay [1] (setting [4]) of 43. `COCC1OC(O)C(O)C(OC)C1O` (stereo not shown) [3,6-Me2Glc]: the Median in assay [1] (setting [4]) was determined as 74. Still for that read-out and setting: for `CC(=O)N[C@H]1[C@H]([C@H](O)[C@H](O)CO)OC(OC[C@H]2O[C@@H](O[C@H]3[C@H](O)[C@@H](NC(C)=O)C(O)O[C@@H]3CO)[C@H](O)[C@@H](O)[C@H]2O)(C(=O)O)C[C@@H]1O` (stereo partly shown) [6'SLN] the value was 99.

In assay [1] (setting [4]), `CC(=O)N[C@H]1[C@H]([C@H](O)[C@H](O)CO)O[C@@](O[C@H](CO)[C@@H](O)[C@@H]2O[C@@](O[C@H](CO)[C@@H](O)[C@@H]3O[C@](O)(C(=O)O)C[C@H](O)[C@H]3NC(C)=O)(C(=O)O)C[C@H](O)[C@H]2NC(C)=O)(C(=O)O)C[C@@H]1O` [(Sia)3] displayed a Median of 158.

Compound `CC(=O)N[C@H]1[C@@H](O[C@H]2[C@@H](O)[C@@H](CO)OC(O)[C@@H]2O[C@@H]2O[C@@H](C)[C@@H](O)[C@@H](O)[C@@H]2O)O[C@H](CO)[C@H](O)[C@@H]1O` (stereo partly shown) [Atri] registered a Median in assay [1] (setting [4]) of 167. Consider `CC(=O)N[C@@H]1[C@@H](O)[C@H](O[C@@H]2O[C@H](CO)[C@H](O)[C@H](O[C@H]3O[C@H](CO)[C@H](O)[C@H](O)[C@H]3NC(C)=O)[C@H]2O[C@@H]2O[C@@H](C)[C@@H](O)[C@@H](O)[C@@H]2O)[C@@H](CO)O[C@H]1O` [Atype2], for which the Median in assay [1] (setting [4]) worked out at 158. Turning to `OC[C@H]1O[C@H](O[C@H]2[C@@H](O)[C@@H](CO)OC(O)[C@@H]2O)[C@H](O)[C@@H](O)[C@H]1O` (stereo partly shown) [Bdi], the Median in assay [1] (setting [4]) is 134. As usually defined, the Kd is the constant that tells how readily two partners part at equilibrium. A high value points to weaker binding. On to `O=C[C@H](O)[C@@H](O)[C@@H](O)[C@H](O)CO` [D-galactose], for which the dissociation constant Kd in assay [2] (stoichiometry fixed to 3, 25 °C) was 2800 ± 140 µM; in assay [2] (stoichiometry fixed to 4, 25 °C) it was 2700 ± 140 µM; in assay [2] (stoichiometry fixed to 5, 25 °C), 2600 ± 130 µM; in assay [2] (stoichiometry fixed to 6, 25 °C), 2500 ± 130 µM; in assay [2] (stoichiometry fixed to 7, 25 °C), 2300 ± 130 µM. The inhibition of hemagglutination result in assay [3] is given as “did not inhibit hemagglutination”. In assay [1] (setting [5]), `O=P(O)(O)OC[C@H]1O[C@H](O)[C@H](O)[C@@H](O)[C@@H]1O` [G6P] showed a Median of 615. The compound `CC(=O)N[C@H]1[C@@H](OC[C@H](N)C(=O)O)O[C@H](CO)[C@H](O)[C@@H]1O` [GalNAca1-OSer] yielded a Median in assay [1] (setting [4]) of 208. In the case of `CC(=O)N[C@H]1[C@H](OCCCN)O[C@H](CO)[C@@H](O[C@@H]2O[C@H](CO)[C@H](O)[C@H](O)[C@H]2O)[C@@H]1O` [Galb1-4GlcNAcb-sp8], the Median in assay [1] (setting [4]) turned out to be 184. Same read-out and setting: for `CC(=O)N[C@@H]1[C@@H](O)[C@H](O[C@@H]2O[C@H](CO)[C@@H](O)[C@H](O)[C@H]2NC(C)=O)[C@@H](CO)O[C@H]1NC(=O)C[C@H](N)C(=O)O` [GlcNAcb1-4GlcNAcb-Asn] the value was 277.

As to `NCC(=O)NCC(=O)NCC(=O)NCC(=O)NCC(=O)NCC(N)=O` [Gly6], the Median in assay [1] (setting [5]) is 530. For `NCC(O)C(O)C(O)C(O)CO` (stereo not shown) [HOCH2(HOCH)4CH2NH2], the Median in assay [1] (setting [4]) was 293. In assay [1] (setting [5]), `C[C@@H]1O[C@@H](O[C@H]2[C@H](O[C@H]3[C@H](O)[C@@H](O)[C@H](O)O[C@@H]3CO)O[C@H](CO)[C@H](O)[C@@H]2O)[C@@H](O)[C@H](O)[C@@H]1O` [Htype6] had a Median of 474. `CC(=O)N[C@H]1[C@H](O[C@H]2[C@@H](O)[C@@H](CO)O[C@@H](O[C@H]3[C@H](O)[C@@H](O)C(O)O[C@@H]3CO)[C@@H]2O)O[C@H](CO)[C@@H](O)[C@@H]1O[C@@H]1O[C@H](CO)[C@H](O)[C@H](O)[C@H]1O` (stereo partly shown) [LNT] gave a Median in assay [1] (setting [5]) of 349. For `CC(=O)N[C@H]1[C@H](O[C@H]2[C@@H](O)[C@@H](CO)O[C@@H](O[C@H]3[C@H](O)[C@@H](O)C(O)O[C@@H]3CO)[C@@H]2O)O[C@H](CO)[C@@H](O)[C@@H]1O[C@@H]1O[C@H](CO)[C@H](O)[C@H](O[C@]2(C(=O)O)C[C@H](O)[C@@H](NC(C)=O)[C@H]([C@H](O)[C@H](O)CO)O2)[C@H]1O` (stereo partly shown) [LSTa], the Median in assay [1] (setting [5]) turned out to be 328.

`CC(=O)N[C@H]1[C@H](O[C@H]2[C@@H](O)[C@@H](CO)O[C@@H](O[C@@H]([C@H](O)[C@@H](O)C=O)[C@H](O)CO)[C@@H]2O)O[C@H](CO[C@]2(C(=O)O)C[C@H](O)[C@@H](NC(C)=O)[C@H]([C@H](O)[C@H](O)CO)O2)[C@@H](O)[C@@H]1O[C@@H]1O[C@H](CO)[C@H](O)[C@H](O)[C@H]1O` [LSTb] gave a Median in assay [1] (setting [5]) of 348.

As to `O=C[C@@H](O)[C@@H](O)[C@H](O)[C@H](O)COP(=O)(O)O` [M6P], in assay [1] (setting [4]), the Median was determined as 148. `CCCCCn1ccc2ccccc21` [NpentylIndol] showed a Median in assay [1] (setting [5]) of 872. Consider `CC(C)C[C@H](NC(=O)CCC(=O)O)C(=O)N1CCC[C@H]1C(=O)N[C@@H](Cc1c[nH]c2ccccc12)C(=O)N[C@@H](Cc1ccc(O)cc1)C(=O)N[C@@H](CCCNC(=N)N)C(=O)N[C@@H](C)C(=O)N1CCC[C@H]1C(=O)N[C@@H](CCCCN)C(N)=O` [RhD] (Suc-LPWYRAPK-NH2), for which the Median in assay [1] (setting [5]) is recorded as 563. `CC(=O)N[C@H]1[C@H]([C@H](O)[C@H](O)CO)OC(O)(C(=O)O)C[C@@H]1O` (stereo partly shown) [Sia] displayed a Median in assay [1] (setting [4]) of 112.

Take `OC[C@H]1O[C@H](O[C@H]2O[C@H](CO)[C@@H](O)[C@H](O)[C@H]2O)[C@H](O)[C@@H](O)[C@@H]1O` [Treh]: the Median in assay [1] (setting [5]) was 2512.

`OC[C@H]1O[C@@H](O[C@H]2[C@H](O)[C@@H](O)[C@H](O)O[C@@H]2CO)[C@H](O)[C@@H](O)[C@@H]1O` [cello]: the Median in assay [1] (setting [5]) is given as 672. Chitosan yielded a Median in assay [1] (setting [5]) of 1790. For the compound Curdlan, in assay [1] (setting [5]), the Median amounted to 1158. The compound Laminaran returned a Median in assay [1] (setting [5]) of 417. Turning to Laminarin, the Median in assay [1] (setting [5]) was 954. For Mannan, the Median in assay [1] (setting [5]) turned out to be 480. On the same count and under the same terms, with Scleroglucan the figure was 1150.

The values are drawn from publication PMC6943638, “Lectin PLL3, a Novel Monomeric Member of the Seven-Bladed β-Propeller Lectin Family” (Molecules, 2019).
